# Values quoted from earlier work in US7259160B2, “Hexahydrodiazepinones as dipeptidyl peptidase-IV inhibitors for the treatment or prevention of diabetes” (Merck & Co., Inc., priority 2003, dated 2007).
# What was measured:
# DPP-IV = target: T1, DPP-IV (Homo sapiens, UniProt P27487)
# T1 construct: GRF is rapidly degraded in plasma to GRF[344]
# hematopoiesis = details: mouse, cyclophosphamide-induced neutropenia
# T1 sequence (P27487 whole entry, species assumed): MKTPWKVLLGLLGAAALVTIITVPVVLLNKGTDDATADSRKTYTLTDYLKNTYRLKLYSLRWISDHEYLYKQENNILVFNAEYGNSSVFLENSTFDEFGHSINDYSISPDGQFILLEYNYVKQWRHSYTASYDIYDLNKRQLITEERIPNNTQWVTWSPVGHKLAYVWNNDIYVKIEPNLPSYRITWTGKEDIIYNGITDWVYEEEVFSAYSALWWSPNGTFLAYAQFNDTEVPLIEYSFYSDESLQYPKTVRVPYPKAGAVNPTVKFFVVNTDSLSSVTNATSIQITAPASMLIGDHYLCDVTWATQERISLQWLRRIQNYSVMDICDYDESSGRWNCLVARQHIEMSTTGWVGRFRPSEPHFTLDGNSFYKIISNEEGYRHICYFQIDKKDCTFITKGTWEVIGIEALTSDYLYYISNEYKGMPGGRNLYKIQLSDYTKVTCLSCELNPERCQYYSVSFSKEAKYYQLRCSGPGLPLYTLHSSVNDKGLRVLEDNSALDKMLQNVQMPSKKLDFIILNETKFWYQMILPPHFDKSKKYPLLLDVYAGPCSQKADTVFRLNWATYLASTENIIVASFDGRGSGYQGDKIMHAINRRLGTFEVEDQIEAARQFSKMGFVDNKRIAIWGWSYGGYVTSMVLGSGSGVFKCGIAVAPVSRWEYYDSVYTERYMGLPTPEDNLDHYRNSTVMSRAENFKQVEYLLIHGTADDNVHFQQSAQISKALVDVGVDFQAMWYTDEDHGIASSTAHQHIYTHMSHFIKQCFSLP
Molecule,degradation of GRF in plasma (DPP-IV),hematopoiesis (hematopoiesis)
diprotin A,prevented,–
CC(C)[C@H](N)C(=O)N1CCC[C@H]1B(O)O [Val-Boro-Pro],–,stimulated hematopoiesis
